Assay [1] deals with VEGF in keratinocytes. The assay can be described thus: Assay of VEGF in PMA-stimulated keratinocytes (ELISA). The assay is classed as cell-based. Conditions: Positive control (PMA) alone; non-stimulated control 208.166. Here is the method:
(§1) Keratinocytes were seeded in 24-well plates in KGM2 medium. After 24 hours of incubation, the cells were pretreated with Schisandra peptides for 24 hours. Next, the cells were stimulated by adding […] PMA (phorbol 12-myristate 13-acetate, Sigma) for 24 hours.
(§2) After the treatment, the cell supernatants were collected and IL-1α and VEGF were assayed using ELISA kits (R&D Systems) according to the manufacturer's instructions.
(§3) An MTT (IL-1α) or neutral red (VEGF) test was carried out on the cell layers: OD, proportional to the quantity of living cells, is read at 570 nm (MTT) or 540 nm (red neutral).
(§4) The quantities of IL-1α and VEGF are expressed in pg/ml/OD570 and pg/ml/OD540, respectively.
In general terms: In an ELISA, binding on a coated surface is turned into a signal by an enzyme label.

The test system of assay [2] is IL-1α released by keratinocytes. The assay can be described thus: Assay of IL-1α released by PMA-stimulated keratinocytes (ELISA). The assay is classed as cell-based. Here is the method: as §1, §2, §3, §4

On to `CCCCCCCCCCCCCC(=O)O[C@@H]1[C@@H](C)[C@@]2(O)[C@@H](C=C(CO)C[C@]3(O)C(=O)C(C)=C[C@@H]23)[C@@H]2C(C)(C)[C@]12OC(C)=O` [PMA, phorbol 12-myristate 13-acetate], for which the “Average VEGF” value in assay [1] came to 767.941 pg/mL. For the same compound, in assay [2] (keratinocytes stimulated by PMA for 24 hours), the “release of IL-1α induced by stimulation (% vs unstimulated)” value is recorded as “+123%”.

For the compound `C[C@@H]1C[C@H]2[C@@H]3CCC4=CC(=O)C=C[C@]4(C)[C@@]3(F)[C@@H](O)C[C@]2(C)[C@@]1(O)C(=O)CO` [dexamethasone], the inhibition at 0.1 µM in assay [2] (Keratinocyte, pretreatment with 10^−7 M dexamethasone, keratinocytes stimulated by PMA 24 hours, read-out: inhibition of the IL-1α release induced by PMA) amounted to 100%.

Broadly, the inhibition is the drop in the measured response relative to a control, in per cent.

Source of the values: patent publication US8758833B2, “Cosmetic composition for the treatment of acne comprising a peptide extract of Schisandra” (Laboratoires Expanscience, priority 2009, dated 2014).
